± gives the expanded uncertainty stated by the source.
Details: Liquid, Closed cell (Static) method

C=CCCCCCCCCCC [1-dodecene]
Details	vapor or sublimation pressure [kPa]
430.38 K	21.7 ± 0.4
443.18 K	33.6 ± 0.4
453.99 K	44 ± 0.4
459.86 K	52.6 ± 0.4
464.81 K	61.6 ± 0.4
470.91 K	70.7 ± 0.4
476.45 K	80.8 ± 0.4
480.78 K	90.2 ± 0.5
484.11 K	100.7 ± 0.5

c1ccc2sccc2c1 [benzo[b]thiophene]
Details	vapor or sublimation pressure [kPa]
434.26 K	21.3 ± 0.4
446.75 K	30.3 ± 0.4
457.64 K	41.1 ± 0.4
465.61 K	50.8 ± 0.4
472.44 K	60.5 ± 0.4
479.15 K	71.5 ± 0.4
484.01 K	80.5 ± 0.4
489.09 K	90.9 ± 0.4
493.8 K	101.5 ± 0.4

CCCCCCCCCCCC [dodecane]
Details	vapor or sublimation pressure [kPa]
432.23 K	20.9 ± 0.4
444.86 K	31 ± 0.4
455.87 K	42.7 ± 0.4
462.05 K	50.8 ± 0.4
469.67 K	62.3 ± 0.4
474.19 K	70.2 ± 0.4
479.82 K	81 ± 0.4
484.34 K	90.8 ± 0.4
488.5 K	100.6 ± 0.4

CCCCCCCCO [octan-1-ol]
Details	vapor or sublimation pressure [kPa]
417.83 K	20.5 ± 0.4
428.6 K	30.4 ± 0.4
437.35 K	41.5 ± 0.4
443.9 K	50.5 ± 0.4
449.55 K	60.7 ± 0.4
454.52 K	71 ± 0.4
459.23 K	81 ± 0.4
463.21 K	91.1 ± 0.5
466.61 K	100.3 ± 0.5
